Measured values: paper PMC8151276, “An Integrated Approach toward NanoBRET Tracers for Analysis of GPCR Ligand Engagement” (Molecules, 2021)

Experiments:
[1] = biological target: T1, ACKR3 (Homo sapiens, UniProt P25106); assay: NanoBRET screen HiBiT-ACKR3 in HEK293; assay type: binding
T1 construct: purchased Promega (in-house HiBiT-GPCR construct library, NanoBRET)
Description: (§1) Each tracer candidate was screened across the entire library of HiBiT-GPCR constructs using NanoBRET as the detection modality. As depicted in Figure 4A, the specificity of interactions was evaluated through decrease in BRET due to competitive displacement of a bound tracer by excess parental compound. Each tracer was analyzed for binding to each HiBiT-GPCR fusion in the absence and in the presence of competing parental compound. Briefly, HEK293 cells were transfected with HiBiT-GPCR constructs diluted into promoterless DNA to reduce expression and maximize translocation to the cell surface. Each tracer candidate was then screened at concentrations of 1 μM and 0.1 μM across cells expressing these fusions. Cells were treated for 1.5 h with tracer either alone or in the presence of 20 μM competing parental compound (i.e., control). BRET was measured upon addition of purified LgBiT and subsequent complementation with HiBiT genetically fused to a GPCR. The specificity of interactions was assessed through a decrease in BRET signal due to competitive displacement of the bound tracer. To further gauge the robustness of these interactions, the fold response over the control (i.e., BRETtracer/BRETcontrol) was calculated. We chose a 1.5-fold response, which translates to ≥7-fold signal over noise as the minimal threshold required to score an interaction as positive. […]. Below we highlight the screening results obtained for our exemplary fluorescent tracers based on Clozapine, Amitriptyline and AZD1283.
(§2) HiBiT-GPCR DNA constructs were diluted in 10 mM Tris pH 8 to a final concentration of 0.01 μg/μL, arrayed in 96-well plates and stored at −20 °C. For transfection, HEK293 cells were suspended in Opti-MEM (without phenol red) supplemented with 2% fetal bovine serum (Seradigm) and 100 units/mL penicillin–streptomycin (Gibco) at a final concentration of 220,000 cells/mL and dispensed into white 96-well plates at 90 μL/well. Subsequent transfections and screens were carried using an Agilent Bravo Automated Liquid Handling Platform. First, the 96-well HiBiT DNA arrays were diluted 25-fold in Opti-MEM (without serum or phenol red) to a final concentration of 0.0004 μg/μL and 20 μL of the diluted DNAs were transferred into new 96-well plates. Next, promoterless carrier DNA (1 μg/μL) was diluted 25-fold (0.04 μg/μL) and then dispensed into the diluted arrays at 20 μL/well. Following brief mixing, Viafect transfection reagent (Promega) diluted 16-fold into Opti-MEM was dispensed into the plates at 40 μL/well. After mixing by pipetting, plates were incubated for 10 min on the pipetting station deck. The DNA-transfection reagent complexes were then added to plates containing cells. To facilitate the screen, 10 μL of DNA-transfection reagent complexes were added in duplicates to the top 4 and bottom 4 rows, resulting in two identical 48-well arrays per plate. Plates with transfected cells were incubated for 18–20 h at 37 °C/5% CO2. A screen of each tracer across the entire library using two different concentrations requires duplicate plates of transfected cells. Depending on the number of tracers being screened, transfections can be scaled up using the same ratios. The next day, for each tracer, four 20× screening solutions in tracer dilution buffer (Promega) were prepared: two duplicates at final concentration of 20 μM and two duplicates at a final concentration of 2 μM. A competing unmodified compound was added to one of each duplicate at a final concentration of 400 μM. The four resulting solutions were diluted 4-fold in Opti-MEM without serum or phenol red to generate 5× solutions (5 µM and 0.5 µM tracer +/− 100 μM competing compound). To screen the library, a BioTek MultiFlo FX liquid dispenser was used to dispense 22.5 µL of tracer solution to the top 4 rows and 22.5 µL tracer + competing compound solution to the 4 bottom rows. Plates were briefly mixed on an orbital shaker and incubated for 1.5 h at room temperature. […]

[2] = biological target: T2, PTGER2 (Homo sapiens, UniProt P43116); assay: NanoBRET screen HiBiT-PTGER2 in HEK293; assay type: binding
T2 construct: purchased Promega (in-house HiBiT-GPCR construct library, NanoBRET)
T2 sequence (P43116 whole entry): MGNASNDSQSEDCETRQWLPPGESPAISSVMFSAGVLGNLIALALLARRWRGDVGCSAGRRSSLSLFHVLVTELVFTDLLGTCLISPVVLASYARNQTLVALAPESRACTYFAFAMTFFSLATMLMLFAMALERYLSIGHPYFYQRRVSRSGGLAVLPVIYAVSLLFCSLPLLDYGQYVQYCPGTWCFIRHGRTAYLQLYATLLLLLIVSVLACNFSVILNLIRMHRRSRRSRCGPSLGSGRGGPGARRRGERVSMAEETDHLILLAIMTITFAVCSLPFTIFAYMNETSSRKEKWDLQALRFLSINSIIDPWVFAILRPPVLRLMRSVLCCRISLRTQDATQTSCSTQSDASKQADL
Description: as §1, §2

T1 sequence (P25106 whole entry): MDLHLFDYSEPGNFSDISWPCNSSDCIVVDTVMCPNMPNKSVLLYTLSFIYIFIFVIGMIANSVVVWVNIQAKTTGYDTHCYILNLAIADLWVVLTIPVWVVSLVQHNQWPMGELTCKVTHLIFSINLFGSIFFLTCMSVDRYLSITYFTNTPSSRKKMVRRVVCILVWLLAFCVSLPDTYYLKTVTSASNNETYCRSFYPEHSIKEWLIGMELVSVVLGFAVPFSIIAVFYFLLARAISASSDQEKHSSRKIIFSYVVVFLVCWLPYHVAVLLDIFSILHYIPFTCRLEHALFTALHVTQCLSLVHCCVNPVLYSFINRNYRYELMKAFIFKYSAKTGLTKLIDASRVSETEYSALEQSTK

| Compound | NanoBRET Fold Response ([1]; ACKR3, tracer 0.1μM) | NanoBRET Fold Response ([1]; ACKR3, tracer 1μM) | NanoBRET Fold Response ([2]; PTGER2, tracer 0.1μM) | NanoBRET Fold Response ([2]; PTGER2, tracer 1μM) | further results |
| --- | --- | --- | --- | --- | --- |
| O=C(CCc1ccc2n1[B-](F)(F)[N+]1=C(c3ccc[nH]3)C=CC1=C2)NCc1ccc(C(=O)NCCOCCC(=O)N[C@@H]2CC[C@@]3(O)[C@H]4Cc5ccc(O)c6c5[C@@]3(CCN4CC3CC3)[C@H]2O6)cc1 [Naltrexone-3-NB590] | 1.11 | 1.07 | 1.04 | 1.00 | – |
| CCCn1c(=O)c2[nH]c(-c3ccc(OCC(=O)NCCNC(=O)CCOCCNC(=O)c4ccc(CNC(=O)CCc5ccc6n5[B-](F)(F)[N+]5=C(c7ccc[nH]7)C=CC5=C6)cc4)cc3)nc2n(CCC)c1=O [XAC-3-NB590] | 1.02 | 1.49 | 1.04 | 1.09 | – |
| CC(C)N(CC[C@H](c1ccccc1)c1cc(CCNC(=O)c2ccc(CNC(=O)CCc3ccc4n3[B-](F)(F)[N+]3=C(c5ccc[nH]5)C=CC3=C4)cc2)ccc1O)C(C)C [Tolterodine-BZ-NB590] | 0.88 | 0.96 | 1.04 | 0.97 | – |
| COc1ccc2[nH]c(-c3ccc(CNC(=O)CCOCCOCCOCCOCCNC(=O)CCc4ccc5n4[B-](F)(F)[N+]4=C(c6ccc[nH]6)C=CC4=C5)cc3)c(CCNC(C)=O)c2n1 [AzomelatoninICO9-2-NB590] | – | – | – | – | NanoBRET Fold Response ([1]; 0.1μM tracer): 1.40; NanoBRET Fold Response ([1]; 1μM tracer): 0.83; NanoBRET Fold Response ([2]; 0.1μM tracer): 1.01; NanoBRET Fold Response ([2]; 1μM tracer): 0.97 |
| CN1CCN(C2=Nc3cc(Cl)ccc3N(CC(=O)NCCOCCOCCOCCOCCNC(=O)CCc3ccc4n3[B-](F)(F)[N+]3=C(c5ccc[nH]5)C=CC3=C4)c3ccccc32)CC1 [Clozapine-c-2-NB590] | – | – | – | – | NanoBRET Fold Response ([1]; ACKR3, 1μM tracer): 0.92; NanoBRET Fold Response ([2]; PTGER2, 0.1μM tracer): 0.98; NanoBRET Fold Response ([2]; PTGER2, 1μM tracer): 1.09 |
| COc1ccccc1N1CCN(CCCCN2C(=O)c3ccc(CNC(=O)CCOCCNC(=O)c4ccc(CNC(=O)CCc5ccc6n5[B-](F)(F)[N+]5=C(c7ccc[nH]7)C=CC5=C6)cc4)cc3C2=O)CC1 [NAN-190-3-NB590] | 0.77 | 1.10 | 1.06 | 1.00 | – |
| Cc1nc2n(c(=O)c1CCN1CCC(c3noc4cc(F)ccc34)CC1)CCCC2OC(=O)NCCOCCOCCOCCOCCNC(=O)CCc1ccc2n1[B-](F)(F)[N+]1=C(c3ccc[nH]3)C=CC1=C2 (centres unmarked) [Risperidone-2-NB590] | 1.07 | 1.36 | 1.01 | 1.05 | – |
| O=C(CCOCCOCCOCCOCCNC(=O)CCc1ccc2n1[B-](F)(F)[N+]1=C(c3ccc[nH]3)C=CC1=C2)NCCCN1CCN(C2=Nc3ccccc3Oc3ccc(Cl)cc32)CC1 [Loxapine-a-2-NB590] | 0.30 | 1.02 | 1.03 | 1.03 | – |
| COc1ccccc1N1CCN(CCCCN2C(=O)c3ccc(CNC(=O)CCOCCOCCOCCOCCNC(=O)CCc4ccc5n4[B-](F)(F)[N+]4=C(c6ccc[nH]6)C=CC4=C5)cc3C2=O)CC1 [NAN-190-2-NB590] | 1.09 | – | 1.02 | 0.98 | – |
| CC(C)N(CC[C@H](c1ccccc1)c1cc(CCNC(=O)CCOCCOCCOCCOCCNC(=O)CCc2ccc3n2[B-](F)(F)[N+]2=C(c4ccc[nH]4)C=CC2=C3)ccc1O)C(C)C [Tolterodine-2-NB590] | 0.96 | 1.00 | 1.00 | 1.01 | – |
| N#CN=C(NCCCOc1cccc(CN2CCCCC2)c1)NCCNC(=O)CCOCCOCCOCCOCCNC(=O)CCc1ccc2n1[B-](F)(F)[N+]1=C(c3ccc[nH]3)C=CC1=C2 [Aminopotentidine-2-NB590] | 0.99 | 1.08 | 0.99 | 1.03 | – |
| CCOC(=O)c1cc(C#N)c(N2CCC(C(=O)NS(=O)(=O)Cc3ccccc3/C=C/C(=O)NCCNC(=O)CCc3ccc4n3[B-](F)(F)[N+]3=C(c5ccc[nH]5)C=CC3=C4)CC2)nc1C [AZD1283-1-NB590] | – | – | – | – | NanoBRET Fold Response ([1]; ACKR3, 0.1μM): 1.06; NanoBRET Fold Response ([1]; ACKR3, 1μM): 1.19; NanoBRET Fold Response ([2]; PTGER2, 0.1μM): 1.00; NanoBRET Fold Response ([2]; PTGER2, 1μM): 1.04 |
| CN(C)CCC=C1c2ccccc2CCc2ccc(C(=O)NCCNC(=O)CCOCCOCCOCCOCCNC(=O)CCc3ccc4n3[B-](F)(F)[N+]3=C(c5ccc[nH]5)C=CC3=C4)cc21 [Amitriptyline-b-2-NB590] | – | – | – | – | NanoBRET Fold Response ([1]; tracer at 0.1μM, listed as amitriptyline-b-2-NB590): 1.17; NanoBRET Fold Response ([1]; tracer at 1μM, listed as amitriptyline-b-2-NB590): 1.07; NanoBRET Fold Response ([2]; tracer at 0.1μM): 1.01; NanoBRET Fold Response ([2]; tracer at 1μM): 1.01 |
| CN(C)CCC=C1c2ccccc2CCc2ccc(C(=O)NCCNC(=O)CCOCCOCCOCCOCCNC(=O)CCc3ccc4n3[B-](F)(F)[N+]3=C(c5ccc[nH]5)C=CC3=C4)cc21 [Amitriptyline-a-2-NB590] | – | – | – | – | NanoBRET Fold Response ([1]; tracer at 0.1μM): 1.15; NanoBRET Fold Response ([1]; tracer at 1μM): 0.99 |
| O=C(CCc1ccc2n1[B-](F)(F)[N+]1=C(c3ccc[nH]3)C=CC1=C2)NCCOCCOCCNC(=O)OCCOCCN1CCN(C2=Nc3ccccc3Sc3ccccc32)CC1 [Quetiapine-a-2-NB590] | 0.96 | 0.96 | 0.96 | 1.05 | – |
| Cc1cc2c(s1)Nc1ccccc1N=C2N1CCN(CCCNC(=O)CCOCCOCCOCCOCCNC(=O)CCc2ccc3n2[B-](F)(F)[N+]2=C(c4ccc[nH]4)C=CC2=C3)CC1 [Olanzapine-a-2-NB590] | 0.94 | 0.83 | 1.03 | 0.98 | – |
| CN1CCN(C2=Nc3cc(Cl)ccc3Nc3ccc(CNC(=O)CCOCCOCCOCCOCCNC(=O)CCc4ccc5n4[B-](F)(F)[N+]4=C(c6ccc[nH]6)C=CC4=C5)cc32)CC1 [Clozapine-b-2-NB590] | – | – | – | – | NanoBRET Fold Response ([1]; ACKR3, 0.1μM tracer): 0.95; NanoBRET Fold Response ([1]; ACKR3, 1μM tracer): 1.05; NanoBRET Fold Response ([2]; PTGER2, 0.1μM tracer): 1.01; NanoBRET Fold Response ([2]; PTGER2, 1μM tracer): 0.98 |
| COc1ccc2c(n1)c(CCNC(C)=O)cn2CCNC(=O)CCc1ccc2n1[B-](F)(F)[N+]1=C(c3ccc[nH]3)C=CC1=C2 [Azamelatonin-1-NB590] | – | – | – | – | NanoBRET Fold Response ([1]; 0.1μM tracer): 0.84; NanoBRET Fold Response ([1]; 1μM tracer): 0.95; NanoBRET Fold Response ([2]; 0.1μM tracer): 1.01; NanoBRET Fold Response ([2]; 1μM tracer): 1.07 |
| CN(CCC=C1c2ccccc2CCc2ccccc21)C(=O)CCOCCOCCOCCOCCNC(=O)CCc1ccc2n1[B-](F)(F)[N+]1=C(c3ccc[nH]3)C=CC1=C2 [Amitriptyline-e-2-NB590] | – | – | – | – | NanoBRET Fold Response ([1]; tracer at 1μM): 0.94 |
| O=C(CCc1ccc2n1[B-](F)(F)[N+]1=C(c3ccc[nH]3)C=CC1=C2)NCc1ccc(C(=O)NCCOCCOCCNCC(O)COc2cccc3ccccc23)cc1 (centres unmarked) [Propranolol-3-NB590] | – | – | – | – | NanoBRET Fold Response ([1]; ACKR3, 0.1μM): 1.04; NanoBRET Fold Response ([1]; ACKR3, 1μM): 1.08; NanoBRET Fold Response ([2]; PTGER2, 0.1μM): 1.00; NanoBRET Fold Response ([2]; PTGER2, 1μM): 1.02 |
| O=C(CCOCCOCCOCCOCCNC(=O)CCc1ccc2n1[B-](F)(F)[N+]1=C(c3ccc[nH]3)C=CC1=C2)NCCCN1CCN(C2=Nc3cc(Cl)ccc3Nc3ccccc32)CC1 [Clozapine-a-2-NB590] | – | – | – | – | NanoBRET Fold Response ([1]; ACKR3, 0.1μM tracer): 1.05; NanoBRET Fold Response ([1]; ACKR3, 1μM tracer): 1.06; NanoBRET Fold Response ([2]; PTGER2, 0.1μM tracer): 1.01; NanoBRET Fold Response ([2]; PTGER2, 1μM tracer): 1.05 |
